The values that follow come from PubChem BioAssay (NCI).

Holding throughout (experiment): NCI anticancer screen, dose series, 48 h
Assay [1] relates to ACHN renal.
Assay [2] concerns HL-60(TB) leukemia.
For assay [3], the system named is KM12 colon.
For assay [4], the system named is U251 CNS.
Assay [5] relates to SNB-75 CNS.
Assay [6] has as its system EKVX NSCLC.
Assay [7] deals with SR leukemia.
Assay [8] deals with 786-0 renal.
In assay [9] the test system is CAKI-1 renal.
In assay [10] the test system is T-47D breast.

Each structure is given as a SMILES string. Several values for one entry are separate records, joined by “and”; a condition that tells them apart may be missing. Identical values can stand only once.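 Exposure lasted 48 hours, with cells grown in 96-well plates and compounds tested at five concentrations. GI50: concentration for 50% inhibition of growth. At the TGI there is no net growth.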

`Oc1ccccc1/C=C/c1csnn1`: the TGI in [1] was greater than 100 µM; in assay [2], 99.7 µM; in assay [3] it was greater than 100 µM; in assay [4], greater than 100 µM; in assay [5], greater than 100 µM; in assay [6], greater than 100 µM. The TGI was greater than 68 µM in assay [7], greater than 31.6 µM in assay [8] and greater than 100 µM in assay [9].
With `CN(CCCn1c2c(c3ccccc3c1=O)C(=O)c1ccccc1-2)CCCn1c2c(c3ccccc3c1=O)C(=O)c1ccccc1-2`, the GI50 in [2] was 3.65 µM; in [3], 0.15 µM; in assay [5], 1.74 µM; in assay [10], 0.259 µM; in assay [6], 23.5 µM; in assay [8], 0.0214 µM. The GI50 in [9] was 2 µM. Besides, the TGI in assay [2] was 12.6 µM; in [3], 1.05 µM; in [5], 5.21 µM; in [10] it was 18.3 µM; in [6], greater than 100 µM; in [8] it was 1.39 µM. This molecule yielded a TGI in assay [9] of 24.8 µM.
With `Cc1ccc(S(=O)(=O)OC2CSS(=O)CC2OS(=O)(=O)c2ccc(C)cc2)cc1` (centres undefined), the TGI in assay [1] stood at 31.3 µM; in assay [2] it was 28.3 µM; in assay [3], 31.3 µM; in [4] it was 28.1 µM; in assay [5] it was 36.2 µM; in assay [6] it was 35.7 µM. Moreover, the figures for the TGI in assay [7], in assay [8] and in [9] were 8.15 µM, 30.5 µM and 25.7 µM, respectively.
`CCC[CH2][Sn]1([CH2]CCC)[O]C(=O)c2cccnc2[O]1`: the GI50 is 2.14 µM in [1]; 1.34 µM in [2]; 4.6 µM in assay [3]; 1.89 µM in assay [4]; 2.09 µM in [5]; 2.54 µM in [6]. The results for the GI50 in [7], in [8] and in [9] were 1.65 µM, 2.62 µM and 0.74 µM, respectively. Also, the TGI was found to be 5.21 µM in assay [1]; 3.99 µM in assay [2]; 17.6 µM in assay [3]; 3.79 µM in [4]; 6.78 µM in assay [5]; 8.04 µM in [6]. The TGI turned out to be 6.19 µM in [7], 8.01 µM in [8] and 3.93 µM in [9].
Turning to `CP1(=O)CCCCC1`, the TGI in assay [1], in [2], in [3], in assay [4], in assay [5] and in assay [6] was greater than 100 µM in each case. For the same molecule, the TGI in assay [7], in assay [8] and in [9] was greater than 100 µM throughout.
For `COc1ccc(-c2nc(-c3nc4ccc(OC)cc4[nH]3)c3ccccn23)cc1`, the GI50 was 3.57 µM in assay [1]; 2.55 µM in assay [2]; 3.88 µM in assay [3]; 4.42 µM in [4]; 24 µM in assay [5]; 2.7 µM in assay [10]. Besides, the GI50 in assay [8] is 8.47 µM; in assay [9], 3.81 µM. For the same molecule, the TGI was 36.6 µM in assay [1]; 7.75 µM in assay [2]; 15.8 µM in assay [3]; greater than 100 µM in assay [4]; greater than 100 µM in assay [5]; 9.75 µM in assay [10]. Also, the TGI in assay [8] was greater than 100 µM; in assay [9], 49.4 µM.
Take `COc1cc(C(=O)O[C@H](C(=O)NCCCCCNC(=O)[C@@H](OC(=O)c2cc(OC)cc3c(C)cccc23)[C@]2(C)CO2)[C@]2(C)CO2)c2cccc(C)c2c1`: the GI50 was less than 0.0143 µM in assay [1]; 0.5 µM in assay [3]; less than 0.01 µM in assay [4]; 0.911 µM in [5]; 1 µM in assay [10]; 0.635 µM in [6]. In addition, the GI50 in assay [8] was less than 0.01 µM; in [9], 0.355 µM. The TGI is less than 0.0338 µM in assay [1]; 1.41 µM in assay [3]; 0.3 µM in [4]; 3.43 µM in assay [5]; 3.72 µM in [6]; 0.0115 µM in assay [8]. The molecule further came in with a TGI in [9] of 1.89 µM.
Regarding `CCC(C)(CC(C)(C)C(=O)NCC(=O)NC(Cc1ccccc1)C(=O)NC(Cc1ccccc1)C(=O)NCC(=O)NC1CC(OC2CC(O)(C(=O)CO)Cc3c(O)c4c(c(O)c32)C(=O)c2c(OC)cccc2C4=O)OC(C)C1O)C(=O)NCC(C)O` (centres undefined), the GI50 in assay [1] was 73.9 mg/L; in assay [2], 1.32 mg/L and 62.8 mg/L; in [3] it was 66.3 mg/L; in assay [4], 51.2 mg/L; in assay [5], 16.1 mg/L; in assay [10], 70.3 mg/L. Also, the values for the GI50 in assay [6], in assay [8] and in assay [9] were greater than 150 mg/L, 54.3 mg/L and 90.9 mg/L, respectively. In addition, the TGI in [1], in [3], in assay [4], in assay [5], in assay [10] and in assay [6] was greater than 150 mg/L each time. In addition, the TGI in assay [8] and in assay [9] was greater than 150 mg/L throughout.
`COc1ccc(Br)c(N/N=C2\CCCNC2=O)c1`: the TGI in assay [1] was greater than 100 µM; in assay [2] it was greater than 100 µM; in assay [3], greater than 100 µM; in assay [4], greater than 100 µM; in assay [5] it was greater than 100 µM; in assay [6], 78.6 µM. Besides, the values for the TGI in assay [7], in assay [8] and in assay [9] were greater than 100 µM, greater than 100 µM and 91.8 µM, respectively.
In the case of `C=C1C(=O)O[C@H]2[C@H]1CC/C(COC(=O)NCc1cn(C)c3ccccc13)=C\CC[C@@]1(C)O[C@@H]21`, the GI50 in assay [1] is 0.533 µM; in assay [2], 0.49 µM; in assay [3] it was 2.88 µM; in assay [4], 1.96 µM; in [5], 4.16 µM; in [6], 1.85 µM. Further, the GI50 is 0.395 µM in [7], 0.685 µM in assay [8] and 1.32 µM in assay [9]. For the same molecule, the TGI amounted to 1.81 µM in [1]; 2.86 µM in assay [2]; 7.67 µM in assay [3]; 5.24 µM in [4]; 17.6 µM in [5]; 4.32 µM in [6]. In addition, the results for the TGI in assay [7], in assay [8] and in [9] were 4.61 µM, 2.04 µM and 2.64 µM, respectively.
